Measured values: patent US10745389B2, “HDAC6 selective inhibitors, preparation method therefor, and application thereof” (CSTONE PHARMACEUTICALS (SUZHOU) CO., LTD., priority 2017, dated 2020)

Experiments:
[1] = molecular target: T1, HDAC 6 (Homo sapiens, UniProt Q9UBN7); assay: In vitro HDAC enzyme inhibition, fluorescent deacetylation assay (HDAC6); type: biochemical
T1 sequence (Q9UBN7 1-1215): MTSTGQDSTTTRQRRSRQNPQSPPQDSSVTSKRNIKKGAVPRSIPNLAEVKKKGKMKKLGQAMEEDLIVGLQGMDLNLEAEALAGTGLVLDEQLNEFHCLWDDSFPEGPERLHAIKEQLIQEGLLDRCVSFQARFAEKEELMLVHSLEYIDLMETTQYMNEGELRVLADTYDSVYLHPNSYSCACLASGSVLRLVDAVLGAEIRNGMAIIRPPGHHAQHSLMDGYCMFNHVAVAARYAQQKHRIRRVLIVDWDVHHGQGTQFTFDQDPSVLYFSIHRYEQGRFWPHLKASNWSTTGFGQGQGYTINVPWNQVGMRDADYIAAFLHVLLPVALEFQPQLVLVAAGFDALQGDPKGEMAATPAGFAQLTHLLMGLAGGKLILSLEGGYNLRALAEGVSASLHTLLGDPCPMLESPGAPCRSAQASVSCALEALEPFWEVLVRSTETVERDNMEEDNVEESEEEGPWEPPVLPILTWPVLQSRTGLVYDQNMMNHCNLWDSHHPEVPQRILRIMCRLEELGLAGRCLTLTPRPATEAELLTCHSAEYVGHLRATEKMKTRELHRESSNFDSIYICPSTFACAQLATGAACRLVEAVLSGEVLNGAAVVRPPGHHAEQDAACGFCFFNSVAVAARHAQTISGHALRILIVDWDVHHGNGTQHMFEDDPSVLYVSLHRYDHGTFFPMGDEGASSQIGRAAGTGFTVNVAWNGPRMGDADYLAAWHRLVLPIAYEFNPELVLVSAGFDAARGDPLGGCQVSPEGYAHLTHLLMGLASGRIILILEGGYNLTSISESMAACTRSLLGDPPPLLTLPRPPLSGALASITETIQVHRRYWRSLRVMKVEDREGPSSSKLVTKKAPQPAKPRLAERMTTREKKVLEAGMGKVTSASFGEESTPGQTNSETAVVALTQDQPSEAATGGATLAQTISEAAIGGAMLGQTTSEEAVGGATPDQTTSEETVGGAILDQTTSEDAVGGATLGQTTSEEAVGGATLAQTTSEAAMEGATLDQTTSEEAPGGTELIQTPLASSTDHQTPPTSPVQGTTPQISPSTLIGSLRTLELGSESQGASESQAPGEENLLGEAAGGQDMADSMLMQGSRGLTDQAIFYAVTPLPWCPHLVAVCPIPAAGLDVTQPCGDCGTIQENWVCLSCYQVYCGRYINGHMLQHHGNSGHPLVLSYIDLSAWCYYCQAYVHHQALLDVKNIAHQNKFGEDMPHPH
Procedure: (§1) The degree of deacetylation of the acetylated substrate was determined by detecting the changes in the intensity of the fluorescent signal in the 384-well microplate using EnVision® microplate reader, the half inhibitory comcentration IC50 value of the compound inhibitor was used as a reference to evaluate the inhibitory effect of the compound on the histone deacetylase (HDAC). The compound was diluted by DMSO to 2 mM, and then added to 384 compound plate, then the solution was diluted 3 times, 10 gradients and double duplicate wells using a Bravo automated liquid workstation; then 0.15 μL of the compound was transferred from 384 compound plate to 384 assay plate by Echo liquid handler. 1.2 configuration of the assay buffer: the configuration contains 20 mM Hepes, 137 mM NaCl, 2.7 mM KCl, 1 mM MgCl2, 0.05% BSA, 0.5 mM TCEP of 1× assay buffer, each of which is represented by final concentration thereof. The rapidly dissolving histone deacetylase was added to the 1× assay buffer and mixed well. The 1.5× enzyme mixture was added to a 20 μL to 384-well assay plate, mixed by centrifugation, placed in a 23° C. incubator, and the enzyme was incubated with the compound for 20 minutes. The 3× substrate solution was configured by 1× assay buffer, and then mixed well. 10 μL was added to a 384-well assay plate, mixed by centrifugation, and placed in a 23° C. incubator for 90 minutes for reaction. The terminating mixture of trypsin and the positive compound SAHA (Vorinostat, vorinostat) was configured with 1× assay buffer and mixed well. The reaction was terminated by adding 30 μL to a 384-well assay plate, then centrifuged, and placed in a 23° C. incubator for 60 minutes. After termination of the reaction for 60 minutes, the 384-well assay plate was placed on an Envision micro-plate reader and the fluorescence value was read. 1.7 Data analysation: the data was analyzed by using XLfit5 software to calculate the IC50 value of the compound.

[2] = molecular target: HDAC 1 (Homo sapiens, UniProt Q13547); assay: In vitro HDAC enzyme inhibition, fluorescent deacetylation assay (HDAC1); type: biochemical
Chain of HDAC 1 (Q13547 whole entry, species assumed): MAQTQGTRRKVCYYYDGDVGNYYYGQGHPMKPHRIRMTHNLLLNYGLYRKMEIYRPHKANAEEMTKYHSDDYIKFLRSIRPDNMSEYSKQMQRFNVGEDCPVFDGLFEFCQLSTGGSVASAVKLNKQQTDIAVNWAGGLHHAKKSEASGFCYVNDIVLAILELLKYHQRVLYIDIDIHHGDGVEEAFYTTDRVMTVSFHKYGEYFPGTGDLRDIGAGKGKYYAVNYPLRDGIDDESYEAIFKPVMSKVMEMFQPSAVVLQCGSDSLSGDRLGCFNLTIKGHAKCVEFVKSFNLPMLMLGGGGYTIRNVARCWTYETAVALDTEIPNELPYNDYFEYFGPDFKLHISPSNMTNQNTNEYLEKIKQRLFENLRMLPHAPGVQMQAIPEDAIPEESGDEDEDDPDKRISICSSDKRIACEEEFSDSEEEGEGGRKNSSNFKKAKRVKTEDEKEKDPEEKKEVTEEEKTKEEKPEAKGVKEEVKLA
Procedure: as §1

[3] = Pharmacokinetic evaluation in male beagle dogs; type: in vivo; details: plasma, male beagle dog
Procedure: Purpose of the experiment: test the compound's pharmacokinetics in male beagle dogs
Experimental materials: Beagle (male, 6-15 kg, 6 months-4 age, Marshall Bioresources, Beijing, China)
The Beagle's pharmacokinetic characteristics after oral administration of the compound were tested by a standard scheme. In the experiment, the candidate compound was formulated into a uniform suspension and administered to a beagle dog for single oral administration. Oral menstruum was formed by a certain proportion of polyethylene glycol-polyoxyethylene castor oil aqueous solution. Blood samples within 24 hours was collected, then centrifuged at 3000 g for 10 minutes, the supernatant was separated to obtain plasma samples, 30 μL of plasma samples was added into 300 μL of internal standard acetonitrile solution to precipitate protein, 30 μL of supernatant was obtained after vortex and centrifugation, and then equal volume of water was added, followed by vortex and centrifugation for another time to collect the supernatant, and the plasma concentration was quantitatively analyzed by LC-MS/MS analysis, and the pharmacokinetic parameters such as peak concentration, peak-reached time, half-life, and area under the administrating curve were calculated.

O=C(NO)c1ccc(Cn2ccc(C3(c4ccc(F)cc4)CCCO3)cc2=O)cc1 (single isomer, unassigned) [Embodiment4]
IC50 [1]: ≤ 10 nM
IC50 [2]: 50 to 200 nM

O=C(NO)c1ccc(Cn2ccc(C3(c4ccc(F)cc4)CCCO3)cc2=O)cc1 (single isomer, unassigned) [Embodiment5]
IC50 [1]: ≤ 10 nM
IC50 [2]: 50 to 200 nM

O=C(NO)c1ccc(CNC(=O)c2ccc(C3(c4ccc(F)cc4)CCCO3)cc2)cc1 (single isomer, unassigned) [Embodiment21]
IC50 [1]: ≤ 10 nM
IC50 [2]: 50 to 200 nM

O=C(NO)c1ccc(CNC(=O)c2ccc(C3(c4ccc(F)cc4)CCCO3)cc2)cc1 (single isomer, unassigned) [Embodiment22]
IC50 [1]: ≤ 10 nM
IC50 [2]: 50 to 200 nM

CC(C)C1(c2ccn(Cc3ccc(C(=O)NO)cc3)c(=O)c2)CCCO1 (centres unmarked) [Embodiment1]
IC50 [1]: ≤ 10 nM
IC50 [2]: > 200 nM

CC1(c2ccn(Cc3ccc(C(=O)NO)cc3)c(=O)c2)CCCO1 (centres unmarked) [Embodiment2]
IC50 [1]: ≤ 10 nM
IC50 [2]: > 200 nM

O=C(NO)c1ccc(Cn2ccc(C3(c4ccc(F)cc4)CCCO3)cc2=O)cc1 (centres unmarked) [Embodiment3]
IC50 [1]: ≤ 10 nM
IC50 [2]: 50 to 200 nM

O=C(NO)c1ccc(Cn2ccc(C3(c4ccc(F)cc4F)CCCO3)cc2=O)cc1 (centres unmarked) [Embodiment6]
IC50 [1]: ≤ 10 nM
IC50 [2]: 50 to 200 nM

O=C(NO)c1ccc(Cn2ccc(C3(c4ccc(F)cc4)CCCO3)cc2=O)nc1 (centres unmarked) [Embodiment7]
IC50 [1]: ≤ 10 nM
IC50 [2]: > 200 nM

O=C(NO)c1cnc(Cn2ccc(C3(c4ccc(F)cc4)CCCO3)cc2=O)nc1 (centres unmarked) [Embodiment8]
IC50 [1]: ≤ 10 nM
IC50 [2]: > 200 nM

O=C(NO)c1ccc(Cn2ccc(C3(c4ccc(F)cc4)CCCO3)cc2=O)cn1 (centres unmarked) [Embodiment9]
IC50 [1]: 50 to 200 nM
IC50 [2]: > 200 nM

O=C(NO)c1ccc(Cn2ccc(C3(c4c(F)cc(F)cc4F)CCCO3)cc2=O)cc1 (centres unmarked) [Embodiment10]
IC50 [1]: 10 to 50 nM
IC50 [2]: > 200 nM

O=C(NO)c1ccc(Cn2cc(F)c(C3(c4ccc(F)cc4)CCCO3)cc2=O)cc1 (centres unmarked) [Embodiment11]
IC50 [1]: ≤ 10 nM
IC50 [2]: 50 to 200 nM

O=C(NO)c1ccc(Cn2ccc(C3(c4ccc(F)cc4)CCO3)cc2=O)cc1 (centres unmarked) [Embodiment12]
IC50 [1]: ≤ 10 nM
IC50 [2]: 50 to 200 nM

O=C(NO)c1ccc(Cn2ccc(C3(c4ccc(F)cc4)CCO3)c(F)c2=O)cc1 (centres unmarked) [Embodiment13]
IC50 [1]: ≤ 10 nM
IC50 [2]: 50 to 200 nM

O=C(NO)c1ccc(Cn2ccc(C3(c4ccc(F)cc4)CCCO3)c(F)c2=O)cc1 (centres unmarked) [Embodiment14]
IC50 [1]: ≤ 10 nM
IC50 [2]: 50 to 200 nM

O=C(NO)c1ccc(Cn2ccc(C3(c4ccc(F)cc4)CCCCO3)cc2=O)cc1 (centres unmarked) [Embodiment15]
IC50 [1]: ≤ 10 nM
IC50 [2]: 50 to 200 nM

O=C(NO)c1ccc(Cn2ccc(C3(c4ccc(F)cc4)OCCO3)cc2=O)cc1 [Embodiment16]
IC50 [1]: ≤ 10 nM
IC50 [2]: 50 to 200 nM

O=C(NO)c1ccc(Cn2ccc(C3(c4ccc(F)cc4)COCCO3)cc2=O)cc1 (centres unmarked) [Embodiment17]
IC50 [1]: ≤ 10 nM
IC50 [2]: 50 to 200 nM

O=C(NO)c1ccc(Cn2ccc(C3(c4ccccn4)CCCO3)cc2=O)cc1 (centres unmarked) [Embodiment18]
IC50 [1]: ≤ 10 nM
IC50 [2]: 50 to 200 nM

O=C(NO)c1ccc(Cn2ccc(C3(c4ccncc4)CCCO3)cc2=O)cc1 (centres unmarked) [Embodiment19]
IC50 [1]: ≤ 10 nM
IC50 [2]: 50 to 200 nM

O=C(NO)c1ccc(CNC(=O)c2ccc(C3(c4ccc(F)cc4)CCCO3)cc2)cc1 (centres unmarked) [Embodiment20]
IC50 [1]: ≤ 10 nM
IC50 [2]: 50 to 200 nM

O=C(NO)c1ccc(CNc2ccc(C3(c4ccc(F)cc4)CCCO3)cc2)cc1 (centres unmarked) [Embodiment23]
IC50 [1]: 10 to 50 nM
IC50 [2]: > 200 nM

O=C(NO)c1ccc(Nc2ccc(C3(c4ccc(F)cc4)CCCO3)cc2)cc1 (centres unmarked) [Embodiment24]
IC50 [1]: 10 to 50 nM
IC50 [2]: > 200 nM

O=C(NO)c1ccc(NC(=O)c2ccc(C3(c4ccc(F)cc4)CCCO3)cc2)cc1 (centres unmarked) [Embodiment25]
IC50 [1]: 10 to 50 nM
IC50 [2]: > 200 nM

O=C(NO)c1ccc(CNC(=O)c2ccc(C3(c4ccc(F)cc4)CCCO3)cn2)cc1 (centres unmarked) [Embodiment26]
IC50 [1]: ≤ 10 nM
half-life ([3]; oral, read-out: Half-life T1/2 (converted)): 2.14 h
AUC ([3]; single oral administration, read-out: Integrated concentration AUC): 13.3 µM·h
bioavailability ([3]; single oral administration, read-out: bioavailability F (%)): 53.1%
clearance ([3]; read-out: Clearance rate): 16 mL/min/kg
IC50 [2]: 50 to 200 nM
